In general, IC50 refers to the concentration that gives 50% inhibition.

The structures appear in SMILES notation. Counter-ions that a name gives are not always drawn.

This experiment has as its target T1, Mouse VCP (Mus musculus, UniProt Q01853).
T1 construct: histidine tag (N); made in house; host or cells: Sf-9 insect cells (baculovirus vector pVL1392)
Description: ATPase activity of purified His-tagged VCP, [γ-32P]ATP, liberated phosphate by liquid scintillation. It counts as biochemical. As for the experimental part:
In one aspect, the effect of VCP regulators for regulating ATPase activity is determined, for example by the following exemplary assay. Mouse VCP cDNA (the amino acid sequence is completely identical among mouse, rat and human) is added with a DNA sequence corresponding to a histidine tag at the amino-terminal, subcloned into a baculovirus vector pVL1392 (BD Bioscience), and expressed in Sf-9 insect cells. The protein is purified with a nickel column. After the purification the concentration of the protein is adjusted to 0.25-0.5 μg/ml and the protein is stored in a solution containing 50 mM TrisCl pH 8.0, 5 mM EDTA, 10% glycerol, and 15 mM DTT at 4° C. 500 ng of the purified VCP is mixed with 100 μM [γ-^32P]ATP (18.5 GBq/mmol) and the test substance in 20 μL of ATPase buffer (20 mM HEPES (pH7.4), 50 mM KCl, 5 mM MgCl2, 15 mM DTT), and incubated at 37° C. for 10 minutes. The enzyme reaction is stopped with addition of 200 μL of an ice-cold solution containing 7% TCA and 1 mM K2HPO4. 50μ of a solution containing 3.75% ammonium molybdate and 0.02M tungstate silicic/3 N H2SO4 is added, followed by 300 μL of n-butylacetic acid, and then the liberated phosphate is extracted into the organic layer. The reaction tube is centrifuged for 5 minutes at 20,000 g to separate the aqueous layer and the organic layer, 200 μL of the organic layer is taken, and the beta ray radiated from the liberated phosphate is quantified with liquid scintillation counter. By measuring the ATPase activity in the presence of the test substance at various concentrations, ATPase inhibitory activity of the test substance is measured.
Mouse VCP cDNA was added with a DNA sequence corresponding to histidine tag at the amino-terminal, subcloned into a baculovirus vector pVL1392 (BD Bioscience), and expressed in Sf-9 insect cells. The protein was purified with a nickel column (GE Healthcare). The concentration of the protein was adjusted to 0.25-0.5 μg/ml and the protein was stored in a solution containing 50 mM TrisCl pH 8.0, 5 mM EDTA, 10% glycerol, and 15 mM DTT.
The ATPase activity was determined as follows. 500 ng of the purified VCP was mixed with 100 μM [γ-32P]ATP (18.5 GBq/mmol) and the test substance in 20 μL of ATPase buffer (20 mM HEPES (pH7.4), 50 mM KCl, 5 mM MgCl2, 15 mM DTT), and incubated at 37° C. for 10 minutes.
The enzyme reaction was stopped with addition of 200 μL of an ice-cold solution containing 7% TCA and 1 mM K2HPO4. 50μ of a solution containing 3.75% ammonium molybdate and 0.02M tungstate silicic/3 NH2SO4 was added, followed by 300 μL of n-butylacetic acid, and then the liberated phosphate was extracted into the organic layer. The reaction tube was centrifuged for 5 minutes at 20,000 g to separate the aqueous layer and the organic layer, 200 μL of the organic layer was taken, and the beta ray radiated from the liberated phosphate was quantified with liquid scintillation counter.
By measuring the ATPase activity in the presence of the test substance at various concentrations, ATPase inhibitory activity of the test substance was measured. IC50 of the each test substance was calculated by applying the measured values to the equation below using GraphPad Prism (GraphPad Software).

Setting [1] is: compounds of Examples, ATPase inhibitory activity, 500 ng VCP, 100 μM ATP, 37° C., 10 minutes.

T1 sequence (Q01853 whole entry): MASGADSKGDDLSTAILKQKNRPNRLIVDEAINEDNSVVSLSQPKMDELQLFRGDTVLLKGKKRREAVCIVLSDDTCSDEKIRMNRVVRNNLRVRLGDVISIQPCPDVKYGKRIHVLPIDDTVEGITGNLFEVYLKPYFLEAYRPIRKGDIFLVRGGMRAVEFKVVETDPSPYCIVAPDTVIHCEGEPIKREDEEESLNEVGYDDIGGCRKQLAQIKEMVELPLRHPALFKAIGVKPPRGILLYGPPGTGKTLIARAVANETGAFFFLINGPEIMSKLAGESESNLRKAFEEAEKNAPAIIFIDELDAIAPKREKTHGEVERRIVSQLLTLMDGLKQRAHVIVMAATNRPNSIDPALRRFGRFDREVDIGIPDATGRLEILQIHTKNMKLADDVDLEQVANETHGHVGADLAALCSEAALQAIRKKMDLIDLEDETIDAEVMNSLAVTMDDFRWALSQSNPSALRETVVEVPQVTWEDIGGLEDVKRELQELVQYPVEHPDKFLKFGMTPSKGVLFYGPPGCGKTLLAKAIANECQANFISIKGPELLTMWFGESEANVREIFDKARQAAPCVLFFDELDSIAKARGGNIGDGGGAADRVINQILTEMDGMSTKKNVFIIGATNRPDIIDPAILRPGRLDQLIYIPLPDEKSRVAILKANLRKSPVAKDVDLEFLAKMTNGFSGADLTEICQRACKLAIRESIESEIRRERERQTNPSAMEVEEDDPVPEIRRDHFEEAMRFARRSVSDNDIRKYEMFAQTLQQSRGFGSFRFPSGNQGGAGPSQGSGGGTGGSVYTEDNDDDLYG

`Cc1cc(C=O)c(OC(C)C)c(-c2ccc(/N=N/c3cc(S(=O)(=O)O)c4ccccc4c3N)cn2)c1` [Example 91, 4-amino-3-[6-(3-formyl-2-isopropoxy-5-methylphenyl)pyridine-3-ylazo]naphthalene-1-sulfonic acid sodium salt]: the IC50 under setting [1] amounted to 212 nM.
Regarding `Nc1c(/N=N/c2ccc(-c3cccc(CN4CCOCC4)c3)nc2)cc(S(=O)(=O)O)c2ccccc12` [Example 11, 4-amino-3-[6-(3-morpholine-4-ylmethylphenyl)pyridine-3-ylazo]naphthalene-1-sulfonic acid sodium salt], the IC50 under setting [1] came to 426 nM.
Same read-out and setting: the figure for `CCOc1c(C=O)cc(C)cc1-c1ccc(/N=N/c2cc(S(=O)(=O)O)c3ccccc3c2N)cn1` [Example 149, 4-amino-3-[6-(2-ethoxy-3-formyl-5-methylphenyl)pyridine-3-ylazo]naphthalene-1-sulfonic acid sodium salt] is 182 nM.
`Cc1cc(F)ccc1-c1ccc(/N=N/c2cc(S(=O)(=O)O)c3ccccc3c2N)cn1` [Example 49, 4-amino-3-[6-(4-fluoro-2-methylphenyl)pyridine-3-ylazo]naphthalene-1-sulfonic acid sodium salt]: the IC50 under setting [1] is 330 nM.
For `CC(C)(C)OC(=O)NCCCOc1ccccc1-c1ccc(/N=N/c2cc(S(=O)(=O)O)c3ccccc3c2N)cn1` [Example 68, 4-amino-3-{6-[2-(3-tert-butoxycarbonylaminopropoxy)phenyl]pyridine-3-ylazo}naphthalene-1-sulfonic acid sodium salt], the IC50 under setting [1] stood at 201 nM.
On to `Nc1c(/N=N/c2c(Cl)cc(Cl)cc2Cl)cc(S(=O)(=O)O)c2ccccc12` [Example 115, 4-amino-3-(2,4,6-trichlorophenylazo)naphthalene-1-sulfonic acid sodium salt], for which the IC50 under setting [1] was 297 nM.
As to `Cc1cccc(C)c1-c1ccc(/N=N/c2cc(S(=O)(=O)O)c3ccccc3c2N)cn1` [Example 90, 4-amino-3-[6-(2,6-dimethylphenyl)pyridine-3-ylazo]naphthalene-1-sulfonic acid sodium salt], the IC50 under setting [1] is 112 nM.
Same read-out and setting: in the case of `Cc1ccccc1-c1ccc(/N=N/c2cc(S(=O)(=O)O)c3ccccc3c2N)cn1` [Example 10, 4-amino-3-(6-o-tolylpyridine-3-ylazo)naphthalene-1-sulfonic acid sodium salt] it was 149 nM.
As for `Nc1c(/N=N/c2ccc(-c3ncco3)nc2)cc(S(=O)(=O)O)c2ccccc12` [Example 36, 4-amino-3-(6-oxazole-2-ylpyridine-3-ylazo)naphthalene-1-sulfonic acid sodium salt], the IC50 under setting [1] amounted to 279 nM.
Regarding `Nc1c(/N=N/c2cnc(-c3ccccc3)c(-c3ccccc3)c2)cc(S(=O)(=O)O)c2ccccc12` [Example 89, 4-amino-3-(5,6-diphenylpyridine-3-ylazo)naphthalene-1-sulfonic acid sodium salt], the IC50 under setting [1] turned out to be 501 nM.
Still for that read-out and setting: the figure for `Nc1c(/N=N/c2ccc(OCc3ccccn3)cc2)cc(S(=O)(=O)O)c2ccccc12` [Example 136, 4-amino-3-[4-(pyridine-2-ylmethoxy)phenylazo]naphthalene-1-sulfonic acid sodium salt] is 601 nM; for `CCCOc1cccc(F)c1-c1ccc(/N=N/c2cc(S(=O)(=O)O)c3ccccc3c2N)cn1` [Example 56, 4-amino-3-[6-(2-fluoro-6-propoxyphenyl)pyridine-3-ylazo]naphthalene-1-sulfonic acid sodium salt] it is 246 nM; for `Nc1c(/N=N/c2cnc3ccccc3c2)cc(S(=O)(=O)O)c2ccccc12` [Example 145, 4-amino-3-(quinoline-3-ylazo)naphthalene-1-sulfonic acid sodium salt] it is 295 nM.
As for `CC(C)Oc1ccccc1-c1ccc(/N=N/c2cc(S(=O)(=O)O)c3ccccc3c2N)cn1` [Example 27, 4-amino-3-[6-(2-isopropoxyphenyl)pyridine-3-ylazo]naphthalene-1-sulfonic acid sodium salt], the 50% inhibitory concentration (IC50) under setting [1] came out at 145 nM.
As for `Cc1cc(/N=N/c2cc(S(=O)(=O)O)c3ccccc3c2N)cnc1-c1ccccc1-c1ccccc1` [Example 86, 4-amino-3-(6-biphenyl-2-yl-5-methylpyridine-3-ylazo)naphthalene-1-sulfonic acid sodium salt], the IC50 under setting [1] stood at 552 nM.
Take `Cc1cccc(-c2ccc(/N=N/c3cc(S(=O)(=O)O)c4ccccc4c3N)cn2)c1` [Example 9, 4-amino-3-(6-m-tolylpyridine-3-ylazo)naphthalene-1-sulfonic acid sodium salt]: under setting [1], the IC50 turned out to be 188 nM.
Same read-out and setting: the figure for `Nc1c(/N=N/c2ccc(-c3csc4ccccc34)nc2)cc(S(=O)(=O)O)c2ccccc12` [Example 41, 4-amino-3-(6-benzo[b]thiophene-3-ylpyridine-3-ylazo)naphthalene-1-sulfonic acid sodium salt] is 210 nM.
With `Nc1c(/N=N/c2cccc(Br)c2)cc(S(=O)(=O)O)c2ccccc12` [Example 109, 4-amino-3-(3-bromophenylazo)naphthalene-1-sulfonic acid sodium salt], the 50% inhibitory concentration (IC50) under setting [1] was 856 nM.
On to `Nc1c(/N=N/c2ccc(OCc3cccnc3)nc2)cc(S(=O)(=O)O)c2ccccc12` [Example 3, 3-(2-pyridinomethoxy-5-pyridinoazo)-4-amino-1-naphthalenesulfonic acid sodium salt], for which the IC50 under setting [1] was found to be 281 nM.
Same read-out and setting: in the case of `Nc1c(/N=N/c2cccc(F)c2)cc(S(=O)(=O)O)c2ccccc12` [Example 101, 4-amino-3-(3-fluorophenylazo)naphthalene-1-sulfonic acid sodium salt] it was 1760 nM; in that of `Nc1c(/N=N/c2ccc(-c3c(OCCCO)ccc4c3sc3ccccc34)nc2)cc(S(=O)(=O)O)c2ccccc12` [Example 82, 4-amino-3-{6-[3-(3-hydroxypropoxy)dibenzothiophene-4-yl]pyridine-3-ylazo}naphthalene-1-sulfonic acid sodium salt], 289 nM.
As for `Nc1c(/N=N/c2ccc(-c3cncc4ccccc34)cc2)cc(S(=O)(=O)O)c2ccccc12` [Example 127, sodium salt], the IC50 under setting [1] amounted to 295 nM.
In the case of `COCCOc1ccc(/N=N/c2cc(S(=O)(=O)O)c3ccccc3c2N)cn1` [Example 6, 4-amino-3-[6-(2-methoxyethoxy)pyridine-3-ylazo]naphthalene-1-sulfonic acid sodium salt], the IC50 under setting [1] is 518 nM.
As to `COC(=O)CCC(=O)c1ccc(-c2ccc(/N=N/c3cc(S(=O)(=O)O)c4ccccc4c3N)cn2)cc1` [Example 40, methyl 4-{4-[5-(1-amino-4-sulfonaphthalene-2-ylazo)pyridine-2-yl]phenyl}-4-oxobutyrate sodium salt], the IC50 under setting [1] is 328 nM.
As for `Nc1c(/N=N/c2cccc(C(=O)c3ccccc3)c2)cc(S(=O)(=O)O)c2ccccc12` [Example 130, 4-amino-3-(3-benzoylphenylazo)naphthalene-1-sulfonic acid sodium salt], under setting [1], the IC50 came to 260 nM.
Consider `N#Cc1ccccc1/N=N/c1cc(S(=O)(=O)O)c2ccccc2c1N` [Example 105, 4-amino-3-(2-cyanophenylazo)naphthalene-1-sulfonic acid sodium salt], for which the IC50 under setting [1] is 238 nM.
On the same count and under the same terms, in the case of `CCCCOc1ccccc1-c1ccc(/N=N/c2cc(S(=O)(=O)O)c3ccccc3c2N)cn1` [Example 60, 4-amino-3-[6-(2-butoxyphenyl)pyridine-3-ylazo]naphthalene-1-sulfonic acid sodium salt] it was 250 nM; in that of `CCCCCCOc1ccccc1-c1ccc(/N=N/c2cc(S(=O)(=O)O)c3ccccc3c2N)cn1` [Example 61, 4-amino-3-[6-(2-hexyloxyphenyl)pyridine-3-ylazo]naphthalene-1-sulfonic acid sodium salt], 843 nM.
As for `O=[N+]([O-])c1ccc(-c2cccc3c2sc2ccccc23)nc1` [Example 29, sodium salt], the IC50 (compounds of Comparative Examples, determined in the same manner as the Examples) was greater than 100000 nM.

The values are drawn from US9573887B2, “Naphthalene derivative” (Daito Chemix Corporation, priority 2010, dated 2017).
